Data: the supplement of paper PMC10307832

Tests used:
Assay in all cases: relative viability (nuclei count vs DMSO), 5 days (fraction); higher = more cells survive
VE-821 + Trametinib = compound: CS(=O)(=O)c1ccc(-c2cnc(N)c(C(=O)Nc3ccccc3)n2)cc1 [VE-821] + CC(=O)Nc1cccc(-n2c(=O)n(C3CC3)c(=O)c3c(Nc4ccc(I)cc4F)n(C)c(=O)c(C)c32)c1 [Trametinib] (partner 0.02 µM)
Outline: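 Dosing by pin tool came one day after lung cancer cell lines were seeded in 1536-well plates, using either one drug or a fixed anchor-drug dose plus five library-drug doses (not always all listed) in √10 steps. After 5 days, nuclei were counted on 4× images. Relative viability is treated-well nuclei count divided by vehicle-well nuclei count, and values are medians of duplicate plates.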

VE-821 = compound: CS(=O)(=O)c1ccc(-c2cnc(N)c(C(=O)Nc3ccccc3)n2)cc1 [VE-821]
Outline: (§1)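 Viability was defined as treated-well nuclei divided by vehicle-well nuclei, with the median taken over replicate plates. Cells from lung cancer lines sat overnight at 37 °C in 1536-well plates, received five √10-spaced library-drug doses by pinning on vehicle-anchored plates, and grew 5 days without medium change before one-step fixation, permeabilisation and Hoechst staining, 4× imaging and MetaXpress nuclear counts. Only plates with control CV under 25% and at least one doubling were kept.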

Vismodegib = compound: CS(=O)(=O)c1ccc(C(=O)Nc2ccc(Cl)c(-c3ccccn3)c2)c(Cl)c1 [Vismodegib]
Outline: as §1

Ruxolitinib = compound: N#CC[C@H](C1CCCC1)n1cc(-c2ncnc3[nH]ccc23)cn1 [Ruxolitinib]
Outline: as §1

Cell Line	relative viability (VE-821 + Trametinib; first compound 0.08 µM)	relative viability (VE-821 + Trametinib; first compound 0.253 µM)	relative viability (VE-821 + Trametinib; first compound 0.8 µM)	relative viability (VE-821 + Trametinib; first compound 2.53 µM)	relative viability (VE-821 + Trametinib; first compound 8 µM)	relative viability (VE-821; 0.08 µM)	relative viability (VE-821; 0.253 µM)	relative viability (VE-821; 0.8 µM)	relative viability (VE-821; 2.53 µM)	relative viability (VE-821; 8 µM)	relative viability (Vismodegib; 0.08 µM)	relative viability (Vismodegib; 0.253 µM)	relative viability (Vismodegib; 0.8 µM)	relative viability (Vismodegib; 2.53 µM)	relative viability (Vismodegib; 8 µM)	relative viability (Ruxolitinib; 0.08 µM)	relative viability (Ruxolitinib; 0.253 µM)	relative viability (Ruxolitinib; 0.8 µM)	relative viability (Ruxolitinib; 2.53 µM)	relative viability (Ruxolitinib; 8 µM)
ChaGo-K-1	0.981	0.932	0.866	0.969	0.851	1.03	0.882	1	0.967	0.738	0.932	1	1.03	0.959	0.97	1.04	0.928	0.947	0.872	0.735
HCC-44	1.11	1.03	1.12	1.13	0.961	1	0.962	1.06	1.04	1.04	1.01	0.94	0.938	0.934	1.01	0.958	0.939	1.04	1.02	0.843
NCI-H441	0.547	0.516	0.371	0.57	0.38	1.16	1.1	1.34	1.34	0.793	1.02	0.909	1.01	0.98	1.04	0.946	0.933	1.16	0.962	0.699
NCI-H1299						1.02	0.971	0.987	0.997	0.941	1.04	0.973	1.02	1.03	1.02	1.04	1.01	1.01	0.974	0.866
LU99A	0.532	0.541	0.572	0.528	0.29	0.987	1.01	0.962	0.998	0.464	0.989	0.899	0.964	0.819	0.922	1.06	0.997	1.08	0.816	0.777
NCI-H520	0.752	0.744	0.654	0.752	0.44	1.05	0.992	0.723	1.06	0.67	0.922	0.885	0.927	0.875	1.11	1.07	0.749	1.2	0.934	0.951
EPLC-272H	0.291	0.28	0.273	0.289	0.27	1.06	0.916	1.08	1.02	0.663	0.936	0.942	0.875	0.952	0.863	0.966	0.894	0.933	0.906	0.818
PC-14	0.966	0.689	0.656	0.63	0.429	1.06	0.932	0.995	0.969	0.686	0.958	0.959	0.988	0.915	0.952		1.07	1.01	0.865	0.8
LCLC-103H	0.748	0.662	0.675	0.68	0.663	1.07	0.915	0.952	1.21	0.891	0.967	1.04	0.92	1.01	1.02	1.04	1.01	0.993	1.05	0.956
COR-L 105	0.463	0.412	0.483	0.4	0.449	0.782	0.811	0.776	0.794	0.574	0.968	0.817	0.959	0.961	0.96	0.76	0.863	0.914	0.824	0.695
NCI-H2342	0.804	0.907	0.8	0.849	0.492	1	0.957	0.939	0.998	0.807	0.882	1.07	0.984	0.742	0.931	0.981	0.827	1.09	1.02	0.964
SW 900	0.675	0.792	0.687	0.706	0.403	1.01	0.793	0.763	0.748	0.537	0.982	0.879	0.737	0.655	0.93	0.991	1.02	1.03	1.02	0.896
LOU-NH91	0.813	0.784	0.776	0.821	0.752	1.03	0.946	0.927	1.03	0.865	0.918	0.963	0.946	0.908	0.958	0.847	0.957	1.03	0.933	0.99
HCC-15	0.354	0.334	0.39	0.499	0.487	1.09	0.966	1.08	1.21	0.996	1.03	0.973	0.977	1.04	0.959	1.01	0.984	1.07	0.943	0.811
A-427	0.868	0.676	0.812	0.686	0.495	1.1	0.878	0.992	0.986	0.468	1	0.94	0.933	0.988	1.01	0.982	1.02	1.12	0.902	0.844
SW 1573	0.53	0.627	0.574	0.547	0.378	1.1	1.04	1.02	1.06	0.788	0.969	0.931	1.05	0.959	0.985	1.02	0.929	1.14	0.865	0.85
NCI-H2087	0.218	0.275	0.177	0.222	0.234	1.16	0.871	0.958	1.32	1.05	0.946	0.969	0.941	1.09	0.906	1.04	0.957	1.12	0.935	0.941
